Results reported in patent publication US20030171406A1, “Medicinal compositions containing propenone derivatives” (priority 2000, published 2003).
≈ marks a conversion by molar mass, not a printed value. Where two headings read alike, the source gives them in different places.

Experiments:
Format in all cases: cell-based
SIVagm SA212 = assay: Antiviral assay in infected Molt-4 cells, virus measured by RT activity; settings: 120 h, RT activity of supernatant at 5 days postinfection
Procedure: (§1) (1) Molt-4 cells (2×10^6 cells) were infected with HIV-1 NL432 (4×10^6 cpm), HIV-2 Rod (8×10^6 cpm), SIVmac MA239 (8×10^6 cpm) and SIVagm SA212 (8×10^6 cpm), and incubated for 1 hr at room temperature.
{circle over (4)} Preparation of SIVagm virus: SW480 cells were cultured in DMEM medium supplemented with 10% fetal bovine serum using 25 cm^2 flask. SIVagm SA212 infectious molecular DNA (40 μg), pSA212, transfected to the cells by calcium phosphate coprecipitation methods, and the supernatant (2 mL) at 2-3 days post-transfection was infected to M8166 cells (1×10^6 cells). The cells were cultured in 10 mL RPMI medium supplemented with 10% fetal bovine serum in CO2 incubator at 37° C. Every 3 days, the cells were separated from the supernatant by centrifugation and continued culture with new culture medium. The each supernatant was filtrated by 0.45 μm filter, measured RT activity, and stored at −80° C. as SIVagm stock virus.
(§2) {circle over (2)} The cells were washed twice to remove the viruses and suspended in 10 mL RPMI medium supplemented with 10% fetal bovine serum. The infected cells (100 μL) were plated in 96-well microtiter plates containing with the serial 5 fold dilution of compounds (100 μL) and cultured in CO2 incubator at 37° C.
(§3) {circle over (3)} The supernatant at 5 days postinfection was harvested and measured the amount of the virus by RT activity.
(§4) Preparation of the solution for RT assay:
(§5) A reaction mixture (90 μL) were contained 50 mM Tris-HCl, pH 8.3, 150 mM KCl, 10 mM MgCl2, 0.1% Nonidet P-40, 10 mM DTT (dithiothreitol), 5 μg/mL poly(rA), 5 μg/mL (dT)12-18 and 1 μCi [^3H] dTTP at final concentration after mixture of a sample (10 μL).
(§6) The procedure of RT assay:
(§7) 1. 10 μL of sample was plated to 3 wells of 96-well microtiter plate (triplicate assay).
(§8) 2. Reaction mixture (90 μL) chilled at 4° C. was added to each well, mixed and then incubate at 37° C. for 3 hrs.
(§9) 3. After incubation, the plate was chilled on ice, and passed through a DEAE-Filtermat using cell harvester. The filter was washed with 4.5% Na2HPO4 (20 see) and H2O (10 sec).
(§10) 4. The filter was dried at 95° C. for 15 min.
(§11) 5. 10 mL of scintilator was added and sealed.
(§12) 6. Radioactivity was measured by LKB Beta Plate scintillation spectroscopy.
(§13) 7. RT activity (cpm/mL) was calculated from average of three wells.

HIV-1 NL432 = assay: as above; settings: read-out: EC50 HIV-1 NL432
Procedure: as §1
(§14) {circle over (1)} Preparation of HIV-1 virus: SW480 cells were cultured in DMEM medium supplemented with 10% fetal bovine serum using 25 cm^2 flask. HIV-1 infectious molecular DNA (40 μg), pNL432, transfected to the cells by calcium phosphate coprecipitation method, and the supernatant (2 mL) at 2-3 days post-transfection was infected to M8166 cells (1×10^6 cells). The cells were cultured in 10 mL RPMI medium supplemented with 10% fetal bovine serum in CO2 incubator at 37° C. After apparent giant cells were observed, the cells were removed by centrifugation and then the supernatant was filtrated by 0.45 μm filter, measured RT activity, and stored at −80° C. as HIV-1 stock virus.
as §2, §3, §4, §5, §6, §7, §8, §9, §10, §11, §12, §13

SIVmac MA239 = assay: as above; settings: 120 h, RT activity of supernatant at 5 days postinfection
Procedure: as §1
as §14, with “over (3)}” for “over (1)}”, “of SIVmac” for “of HIV-1”, “flask. SIVmac MA239” for “flask. HIV-1”, “μg), pMA239,” for “μg), pNL432,”, “to CEMX174” for “to M8166”, “as SIVmac” for “as HIV-1”
as §2, §3, §4, §5, §6, §7, §8, §9, §10, §11, §12, §13

HIV (HTLV-IIIB strain) = assay: MTT assay, MT-4 cells infected with HIV; settings: Human immunodeficiency virus 1, MT4, 120 h, 5 days, inhibits 50% of cell damage caused by virus, read-out: EC50
Procedure: The inhibitory effects of each anti-human immunodeficiency virus active substance against human immunodeficiency virus have been determined by MTT assay described below.
(1) Human T cell strain Molt-4 clone 8 persistently infected HIV (HTLV-IIIB strain) was cultivated in RPMI-1640 medium supplemented with 10% fatal bovine serum, and supernatant was filtered, measured RT activity, and stored at −80° C. On the other hand, each human anti-immunodeficiency virus active substance was diluted to fixed concentration in culture medium, they were plated to 96-well microtiter plate. Subsequently, 100 μL (3.5×10^4 cells) of MT-4 cell suspension was plated to 96-well microtiter plate, and then above mentioned supernatant containing HIV, which was diluted by culture medium, was added 50 μL (60 pfu (plaque forming unit.)) to 96-well microtiter plate.
(2) After cultivation at 37° C. for 5 days in CO2 incubator, into all well was added 30 μL per well 3-(4,5-[…])-2,5-diphenyltetrazolium bromide (MTT) 5 mg/mL) and PBS, and then incubated for 1 h.
In this time, alive cells reduced MTT and formazan was precipitated, therefore, 150 μL of cell supernatants were removed from all wells, and then 150 μL of lysate (10% triton X-100 and 0.4% (v/v) HCl-containing isopropanol) was added, and formazan was eluated on a plate shaker.

HIV-2 Rod = assay: Antiviral assay in infected Molt-4 cells, virus measured by RT activity; settings: read-out: EC50 HIV-2 ROD
Procedure: as §1
{circle over (2)} Preparation of HIV-2 virus: HIV-2 Rod was infected to M8166 cells (1×10^6 cells). The cells were cultured in 10 mL RPMI medium supplemented with 10% fetal bovine serum in CO2 incubator at 37° C. After apparent giant cells were observed, the cells were removed by centrifugation and then the supernatant was filtrated by 0.45 μm filter, measured RT activity, and stored at −80° C. as HIV-2 stock virus.
as §2, §3, §4, §5, §6, §7, §8, §9, §10, §11, §12, §13

[1] = test system: feline immunodeficiency virus (FIV TM-2 strain); assay: FIV antiviral assay in MYA-1 feline T cells, RT activity; settings: T-cell, 240 h, FIV TM-2, MYA-1 cells, RT activity at 10 days postinfection
Procedure: (1) The serial 5 fold diluted samples were plated in 24 well microtiter plate. Feline T-cell lines (MYA-1 cells: 4×10^5 cells/well) and feline immunodeficiency virus (FIV TM-2 strain: 3000 cpm/well) were added to each well. The cells were cultured with 1.5 mL RPMI medium supplemented with 10% fetal bovine serum, 2 μg/mL polybrene, 100 unit/mL human recombinant IL-2 and 50 μM 2-mercaptoethanol in CO2 incubator at 37° C.
{circle over (1)} Preparation of FIV TM-2 virus: FIV TM-2 was infected to MYA-1 cells (1×10^6 cells). The cells were cultured in 10 mL RPMI medium supplemented with 10% fetal bovine serum, 2 μg/mL polybrene, 100 unit/ml human recombinant IL-2 and 50 μM 2-mercaptoethanol in CO2 incubator at 37° C. Every 1-2 days, the cells were separated from the supernatant by centrifugation and continued culture with new culture medium. Each of the supernatant was filtrated by 0.45 μm filter, measured RT activity, and stored at as −80° C. as FIV stock virus.
(2) Every 1-2 days, the supernatants were measured the amount of the virus by RT activity (as same as experimental example 2).

[2] = Human immunodeficiency virus 1, 120 h, Molt-4 cells, RT activity of supernatant at 5 days postinfection
[3] = Human immunodeficiency virus 2, 120 h, Molt-4 cells, RT activity of supernatant at 5 days postinfection

| EC50 (SIVagm SA212) [ng/mL] | EC50 (HIV-1 NL432; [2]) [ng/mL] | EC50 (SIVmac MA239) [ng/mL] | EC50 (HIV-2 Rod; [3]) [ng/mL] | EC50 [1] [ng/mL] | Compound | EC50 (HIV (HTLV-IIIB strain)) [ng/mL] | EC50 (HIV-1 NL432; Human immunodeficiency virus 1, MOLT-4, 120 h) [ng/mL] | EC50 (HIV-2 Rod; Human immunodeficiency virus 2, MOLT-4, 120 h) [ng/mL] |
| --- | --- | --- | --- | --- | --- | --- | --- | --- |
| 22 (≈ 0.096 µM) | 8.4 (≈ 0.0366 µM) | 9.1 (≈ 0.0397 µM) | 22 (≈ 0.096 µM) |  | Nc1ccn(C2CSC(CO)O2)c(=O)n1 (single isomer, unassigned; (-)) [Lamivudine, (−)-2′,3+-dideoxy-3′-thiacytidine] | 38 |  |  |
| 44 (≈ 0.14 µM) | 57 (≈ 0.182 µM) | 57 (≈ 0.182 µM) | 35 (≈ 0.112 µM) | 300 (≈ 0.958 µM) | O=C(C=C(O)c1nc[nH]n1)c1ccc(Cc2ccc(F)cc2)o1 [Compound I-16, 1-[5-(4-Fluorobenzyl)furan-2-yl]-3-hydroxy-3-(1H-1,2,4-triazol-3-yl)propenone] |  |  |  |
| 0.36 (≈ 0.00135 µM) | 0.51 (≈ 0.00191 µM) | 0.35 (≈ 0.00131 µM) | 0.28 (≈ 0.00105 µM) | 48 (≈ 0.18 µM) | Cc1cn(C2CC(N=[N+]=[N-])C(CO)O2)c(=O)[nH]c1=O (stereo not drawn) [Zidovudine, 3′-azido-3′-deoxycytimidine] | 1.8 |  |  |

| Compound | EC50 (SIVagm SA212) [ng/mL] | EC50 (HIV-1 NL432; [2]) [ng/mL] | EC50 (SIVmac MA239) [ng/mL] | EC50 (HIV-2 Rod; [3]) [ng/mL] | EC50 [1] [ng/mL] | EC50 (HIV (HTLV-IIIB strain)) [ng/mL] | EC50 (HIV-1 NL432; Human immunodeficiency virus 1, MOLT-4, 120 h) [ng/mL] | EC50 (HIV-2 Rod; Human immunodeficiency virus 2, MOLT-4, 120 h) [ng/mL] |
| --- | --- | --- | --- | --- | --- | --- | --- | --- |
| Cc1cn([C@H]2C=C[C@@H](CO)O2)c(=O)[nH]c1=O [Stavudine] | 4.5 (≈ 0.0201 µM) |  | 3.4 (≈ 0.0152 µM) |  |  | 50 | 6.1 (≈ 0.0272 µM) | 4.1 (≈ 0.0183 µM) |
